What was measured:
Assay type in all cases: cell-based, human
[1] = tested on: hepatic tri-cultures; experiment: Cell health (morphology, urea production, LDH release), Example 9; details: TGF-β1 10 ng/ml, exposure up to 120 hr
Experimental: (§1) Following exposure to methotrexate (MTX; 0.1 and 1 μM; Sigma-Aldrich, St. Louis, MO) or TGF-β1 (0.1 and 10 ng/ml; Miltenyi Biotec, Gaithersburg, MD) or vehicle (DMSO; 0.1% v/v), the expression of various genes known to have a role in fibrogenic responses (e.g., LGALS3, LOX, MMP1) was determined. MTX and TGF-β1 are known fibrogenic compounds Cell health was assessed by urea production and LDH release in the medium.
(§2) The cell harvest and analytical endpoints were done as follows. Phase contrast images were captured each day. The media samples were collected for lactate dehydrogenase (LDH) assay at the end of each treatment period (i.e., 72 or 120 hours of treatment with each compound). The results were used to assess cell health. Cell lysates were harvested for gene expression analysis. 2 wells were combined per sample. The treatment samples were analyzed in triplicate. The following genes that have a role in fibrogenic response were observed. LGALS3 (Galectin3); LOX (lysyl oxidase), MMP1 (matrix Metalloproteinase 1); Housekeeping gene (β-actin). The images in FIGS. 44 and 45 are at 200×.

[2] = tested on: genes known to have a role in fibrogenic responses (e.g., LGALS3, LOX, MMP1); experiment: Fibrogenic response gene expression overall, Example 9
Experimental: (§3) Methods: The hepatic tri-culture system, including adult primary human hepatocytes (PHHs), endothelial cells and stromal cells, was cultured with and without primary KCs, at a ratio of 1 KC:4 PHH or 1 KC:2 PHH, in a glucocorticoid-containing or -free media. […] MTX or TGF-β1 or […] (LPS) cause hepatic injury. The injury leads to lipid accumulation, lipotoxicity and cytokines are produced. These activate the KCs and the liver sinusoidal endothelial cells (LSEC). Then stromal activation and gene expressions occur, leading to liver fibrosis.
as §1
(§4) The experiments were done in a 96-well format according to the details shown below. […] The hepatocytes were from an individual adult lot. The Kupffer cells (KCs) were from an individual adult lot. The seeding density of the Kupffer cells to the hepatocytes was selected to mimic healthy or inflammatory physiological levels (1:4 or 1:2 ratio). The seeding of the KCs occurred on Day 1 of the culture (meaning 24 hours post-hepatocyte plating).
(§5) All hepatocyte plating was performed using TCPM with Dex (1 μM), as above. Four hours after hepatocyte plating, TCCM was added with and without Dex (half of the cultures with Dex, half without.) The media used were those as described above. The medium exchange process was to do 50% media changes following KC plating up until the compound addition.
Thawing and plating of the hepatocytes was done according to methods as known in the art. The next day (24 hours) after plating the cells, the KCs were added in TCCM with or without Dex (0.1 μM) at a 1:4 or 1:2 ratio to hepatocytes. […]
The cell harvest and analytical endpoints were done as follows. […] The treatment samples were analyzed in triplicate. […]

[3] = tested on: hTCS with KC; experiment: Urea production, Example 10; details: 10 ng/ml, between 6 and 96 h
Experimental: (§6) A 24-well plate, all-human cell-based triculture system (hTCS) that includes cryopreserved primary human feeder cells (FCs) and primary human hepatocytes (PHHs) and KC were used. The ratios of hepocytes: KC of 1:4 and 1:2 were used. The cells were exposed to TGF-β (10 ng/ml), with NO DEX in the media. During exposure, the above genes were followed. The workflow was the same as described in Example 9.
(§7) Exposure times were measured at 2, 6, 24, and 96 hours. The gene expressions SMAD-7, LOX, MMP1, LGALS3, UCHL1, HSP90B1, MMP14, PPAR-λ(gamma)) and two housekeeping genes; β-Actin (duplexed) and GAPDH were measured. Cell Health was evaluated by measuring lactate dehydrogenase (LDH), and urea production at all time points.

[4] = tested on: co-cultured cells at a 1:2 Kupffer cell to hepatocyte ratio; experiment: Cell morphology imaging, Example 10; details: 24 hours of exposure
Experimental: as §6

[5] = tested on: hTCS with KC; experiment: LDH cytotoxicity, Example 10; details: 10 ng/ml, presence of Kupffer cells, after 96 hours of exposure
Experimental: as §6, §7

[6] = tested on: LGALS3 (Galectin3); experiment: cells
Experimental: as §3, §1, §4, §5
(§8) Thawing and plating of the hepatocytes was done according to methods as known in the art. The next day (24 hours) after plating the cells, the KCs were added in TCCM with or without Dex (0.1 μM) at a 1:4 or 1:2 ratio to hepatocytes. The next day and subsequent days, 50% volume of medium was changed each day. Starting at day 5 of culture, the compounds tested were added in the 50% medium volume and allowed to go, unchanged, through Day 8 of culture (72 hr treatment); or to 120 hr treatment times. The treatment compounds were methotrexate (0.1 and 1.0 μM) and TGF-β1 (0.1 and 10 ng/ml).
as §2

[7] = tested on: MMP1 (matrix Metalloproteinase 1); experiment: cells
Experimental: as §3, §1, §4, §5, §8, §2

[8] = tested on: LOX (lysyl oxidase); experiment: cells
Experimental: as §3, §1, §4, §5, §8, §2

[9] = tested on: SMAD-7, LOX, MMP1, LGALS3, UCHL1, HSP90B1, MMP14, PPAR-λ(gamma); experiment: Gene expression time course after TGF-β exposure, Example 10; details: 10 ng/ml, no DEX
Experimental: as §6
The cells were exposed to 10 ng/ml TGF-β.
as §7

[10] = 72 hours, with Dex, No KC, TGF-β1 0.1 ng/mL
[11] = 72 hours, with Dex, with KCs, TGF-β1 0.1 ng/mL
[12] = 72 hours, with Dex, with KCs, TGF-β1 10 ng/mL
[13] = 72 hours, without Dex, No KC, TGF-β1 0.1 ng/mL
[14] = 72 hours, without Dex, No KC, TGF-β1 10 ng/mL
[15] = 72 hours, without Dex, with KCs, TGF-β1 0.1 ng/mL
[16] = 72 hours, without Dex, with KCs, TGF-β1 10 ng/mL
[17] = 120 hours, with Dex, No KC, TGF-β1 0.1 ng/mL
[18] = 120 hours, with Dex, No KC, TGF-β1 10 ng/mL
[19] = 120 hours, with Dex, with KCs, TGF-β1 0.1 ng/mL
[20] = 120 hours, with Dex, with KCs, TGF-β1 10 ng/mL
[21] = 120 hours, without Dex, No KC, TGF-β1 0.1 ng/mL
[22] = 120 hours, without Dex, No KC, TGF-β1 10 ng/mL
[23] = 120 hours, without Dex, with KCs, TGF-β1 0.1 ng/mL
[24] = 120 hours, without Dex, with KCs, TGF-β1 10 ng/mL

In the case of “TGF-β1: transforming growth factor-β1, pro-fibrogenic cytokine used as fibrogenic reference compound”, the “cell stress (hepatocellular morphology, urea production, LDH release)” value [1] is reported as “exhibited signs of cell stress”, the “culture conditions in which effects on fibrogenic genes were observed” value ([2]; DEX / no DEX, with / without KCs) is reported as “observed in both DEX and no DEX treated groups, with or without KCs” and the gene expression ([2]; TGF-β1 0.1 ng/ml) is reported as “did not affect gene expression”. For the same substance, the “urea production rate compared to vehicle alone” value [3] was “a decrease in the production rate”, the cell appearance [4] was “the cells appear healthy” and the “cytotoxicity based on LDH production” value [5] was “cytotoxicity of the co-cultured cells was low”. For the same substance, the “LGALS3 fold induction Mean” value [6, 10] was 1.1 fold, the “LGALS3 fold induction Mean” value ([6]; 72 hours, with Dex, No KC, TGF-β1 10 ng/mL) was 0.8 fold and the “LGALS3 fold induction Mean” value [6, 11] was 0.9 fold. The “LGALS3 fold induction Mean” value [6, 12] was 0.8 fold, the “LGALS3 fold induction Mean” value [6, 13] was 1.2 fold and the “LGALS3 fold induction Mean” value [6, 14] was 0.5 fold. For the same substance, the “LGALS3 fold induction Mean” value [6, 15] was 1.1 fold, the “LGALS3 fold induction Mean” value [6, 16] was 0.8 fold and the “LGALS3 fold induction Mean” value [6, 17] was 1.0 fold. For the same substance, the “LGALS3 fold induction Mean” value [6, 18] was 0.8 fold, the “LGALS3 fold induction Mean” value [6, 19] was 0.8 fold and the “LGALS3 fold induction Mean” value [6, 20] was 0.8 fold. The “LGALS3 fold induction Mean” value [6, 21] was 1.0 fold, the “LGALS3 fold induction Mean” value [6, 22] was 0.4 fold and the “LGALS3 fold induction Mean” value [6, 23] was 1.1 fold. The “LGALS3 fold induction Mean” value [6, 24] was 0.6 fold, the “MMP1 fold induction Mean” value [7, 10] was 0.9 fold and the “MMP1 fold induction Mean” value [7, 11] was 1.0 fold. For the same substance, the “MMP1 fold induction Mean” value [7, 12] was 1.3 fold, the “MMP1 fold induction Mean” value [7, 13] was 1.0 fold and the “MMP1 fold induction Mean” value [7, 14] was 1.2 fold. The “MMP1 fold induction Mean” value [7, 15] was 1.1 fold, the “MMP1 fold induction Mean” value [7, 16] was 1.2 fold and the “MMP1 fold induction Mean” value [7, 17] was 1.2 fold. The “MMP1 fold induction Mean” value [7, 18] was 1.1 fold, the “MMP1 fold induction Mean” value [7, 19] was 1.2 fold and the “MMP1 fold induction Mean” value [7, 20] was 0.1 fold. For the same substance, the “MMP1 fold induction Mean” value [7, 21] was 1.0 fold, the “MMP1 fold induction Mean” value [7, 22] was 1.1 fold and the “MMP1 fold induction Mean” value [7, 23] was 1.1 fold. The “MMP1 fold induction Mean” value [7, 24] was 1.7 fold, the MMP1 gene expression ([7]; TGF-β1 10 ng/ml, presence of KCs) was “increased MMP1 in a time-dependent manner” and the “LOX fold induction Mean” value [8, 10] was 1.1 fold. For the same substance, the “LOX fold induction Mean” value [8, 11] was 1.0 fold, the “LOX fold induction Mean” value [8, 12] was 1.2 fold and the “LOX fold induction Mean” value [8, 13] was 1.2 fold. The “LOX fold induction Mean” value [8, 14] was 1.3 fold, the “LOX fold induction Mean” value [8, 15] was 1.1 fold and the “LOX fold induction Mean” value [8, 16] was 1.6 fold. The “LOX fold induction Mean” value [8, 17] was 0.9 fold, the “LOX fold induction Mean” value [8, 18] was 1.7 fold and the “LOX fold induction Mean” value [8, 19] was 1.0 fold. For the same substance, the “LOX fold induction Mean” value [8, 20] was 1.6 fold, the “LOX fold induction Mean” value [8, 21] was 1.2 fold and the “LOX fold induction Mean” value [8, 22] was 2.2 fold. The “LOX fold induction Mean” value [8, 23] was 1.2 fold, the “LOX fold induction Mean” value [8, 24] was 2.0 fold and the gene expression ([9]; 24 hours of exposure, 1:2 and 1:4 ratios) was “multiple positive signals for gene expression”. For the same substance, the “gene expression compared to the controls” value ([9]; 96 hours exposure, almost all genes, ratios 1:4 and 1:2 Kupffer cells to hepatocytes) was “reduced gene expression”.
